Data on seven molecules can be found in ChEMBL document CHEMBL1201862, “PubChem BioAssay data set” (2004).

The structures appear in SMILES notation.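 Growth conditions: 96-well plates. Treatment: test compound, 48 hours, 5 concentrations. Analysis: linear interpolation between bracketing concentrations; unreached endpoints set to highest concentration. GI50 = concentration required for 50% inhibition of growth.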 The source made the active and inactive calls. Cut-off read from the data, not from the text of the source: active = GI50 up to about 1.1 µM and inactive = higher. A value given as a limit tells only on which side of the number the result lay.

Among the test systems are NCI-H23; HCT-15; SK-OV-3; UACC-257; HT-29; DU-145; T47D; SK-MEL-28; IGROV-1; OVCAR-3; MOLT-4; KM12; U-251; CAKI-1; COLO 205; NCI-H226; MDA-MB-435; UACC-62; ACHN; HCC 2998.
Holding throughout (assay): DTP human tumour cell line panel, 48 h

For the molecule `COc1ccnc2c1C(=O)c1nc3ccccc3c3ccnc-2c13`, the GI50 was 0.271 µM (active) with NCI-H23; less than 0.01 µM with HCT-15; 0.167 µM (active) in the test with SK-OV-3; 0.198 µM (active) in the test with UACC-257; 0.0571 µM (active) with HT-29; 0.0479 µM (active) in the test on DU-145. Besides, the 50% growth inhibitory concentration (GI50) in the test on T47D was 0.291 µM (active); in the test on SK-MEL-28 it was 0.305 µM (active); in the test with IGROV-1, 0.177 µM (active); in the test on OVCAR-3, 0.0353 µM (active); in the test on MOLT-4 it was 1.42 µM (inactive); in the test with KM12 it was 0.101 µM (active). Moreover, the 50% growth inhibitory concentration (GI50) in the test with U-251 is 0.204 µM (active); with CAKI-1, 0.181 µM (active); in the test on COLO 205, 0.0796 µM (active); in the test on NCI-H226 it was 0.17 µM (active); in the test with MDA-MB-435, 0.396 µM (active); in the test on UACC-62, 0.136 µM (active). Further, the results for the GI50 with ACHN and in the test with HCC 2998 were 0.0634 µM (active) and 0.0687 µM (active), respectively.
For `Cc1ccc2c(c1)C(C(=O)N[C@@H]1C(=O)N3[C@@H]1SC(C)(C)[C@@H]3C(=O)O)OCCC2` (stereo not given in full), the GI50 with NCI-H23 is > 100 µM (inactive); with HCT-15, more than 100 µM; in the test on SK-OV-3, > 100 µM (inactive); in the test on UACC-257, > 100 µM (inactive); in the test with HT-29, > 100 µM (inactive); with DU-145, > 100 µM (inactive). For the same molecule, the GI50 is > 100 µM (inactive) in the test on T47D; > 100 µM (inactive) with SK-MEL-28; > 100 µM (inactive) in the test on IGROV-1; 87.1 µM (inactive) in the test on OVCAR-3; > 100 µM (inactive) with MOLT-4; > 100 µM (inactive) in the test on KM12. Further, the GI50 with U-251, in the test on CAKI-1, with COLO 205, with NCI-H226, in the test on MDA-MB-435 and in the test on UACC-62 was > 100 µM (inactive) each time. For the same molecule, the GI50 in the test on ACHN and in the test on HCC 2998 was > 100 µM (inactive) each time.
On to `C/C=C(/C)C(=O)O[C@H](C[C@@H](C)[C@H]1CC(c2ccoc2)OC1=O)[C@@]1(C)C(=O)CCC2O[C@]21C` (stereo not given in full), for which the GI50 with NCI-H23 was > 100 µM (inactive); in the test with HCT-15 it was more than 100 µM; in the test on SK-OV-3 it was > 100 µM (inactive); with UACC-257 it was > 100 µM (inactive); in the test on HT-29 it was > 100 µM (inactive); with DU-145 it was > 100 µM (inactive). Further, the GI50 in the test on T47D, with SK-MEL-28, with IGROV-1, in the test with OVCAR-3, in the test on MOLT-4 and with KM12 was > 100 µM (inactive) in each case. Also, the GI50 in the test on U-251, with CAKI-1, in the test with COLO 205, in the test on NCI-H226, with MDA-MB-435 and in the test on UACC-62 was > 100 µM (inactive) in each case. The GI50 in the test on ACHN and with HCC 2998 was > 100 µM (inactive) in each case.
`C=CCOC(=O)N1c2ccc(O[Si](C)(C)C(C)(C)C)cc2[C@@]23O[C@@]24[C@@H]1C#C/C=C\C#C[C@]3(O)C(OC)(OC)C[C@@H]4C`: the GI50 with NCI-H23 was 16.3 µM (inactive); in the test with HCT-15, more than 100 µM; with SK-OV-3 it was 7.36 µM (inactive); with UACC-257, 19 µM (inactive); in the test on HT-29 it was 12.9 µM (inactive); in the test with DU-145 it was > 80 µM (inactive). The GI50 with T47D was 25.3 µM (inactive); with SK-MEL-28, > 100 µM (inactive); in the test on IGROV-1, > 100 µM (inactive); in the test with OVCAR-3, 5.55 µM (inactive); with MOLT-4, 2.89 µM (inactive); in the test on KM12, > 100 µM (inactive). Besides, the GI50 is 18.6 µM (inactive) with U-251; 2.71 µM (inactive) in the test on CAKI-1; > 26.8 µM (inactive) in the test on COLO 205; 13.6 µM (inactive) in the test with NCI-H226; > 85.1 µM (inactive) in the test with MDA-MB-435; 10.8 µM (inactive) in the test on UACC-62. The GI50 in the test with ACHN is 10.6 µM (inactive); in the test on HCC 2998, > 22.8 µM (inactive).
With `N#CCc1nc(C#N)c(N)o1`, the GI50 was > 100 µM (inactive) in the test with NCI-H23; more than 100 µM in the test on HCT-15; > 100 µM (inactive) in the test with SK-OV-3; > 100 µM (inactive) in the test on UACC-257; > 100 µM (inactive) in the test on HT-29; > 100 µM (inactive) in the test with DU-145. Moreover, the GI50 with T47D, in the test on SK-MEL-28, in the test on IGROV-1, in the test on OVCAR-3, in the test on MOLT-4 and in the test with KM12 was > 100 µM (inactive) in each case. The GI50 in the test with U-251, with CAKI-1, in the test on COLO 205, with NCI-H226, in the test on MDA-MB-435 and in the test with UACC-62 was > 100 µM (inactive) in each case. Besides, the GI50 with ACHN and in the test on HCC 2998 was > 100 µM (inactive) throughout.
`CC(C)CCC[C@@H](C)[C@H]1CC[C@H]2[C@@H]3CC[C@H]4C[C@H](N)CC[C@]4(C)[C@H]3CC[C@]12C`: the GI50 in the test with NCI-H23 was 26.1 µM (inactive); with HCT-15 it was 24.8 µM; in the test on SK-OV-3, 22.6 µM (inactive); with UACC-257 it was 19 µM (inactive); in the test with HT-29, 18.3 µM (inactive); with DU-145 it was 16.4 µM (inactive). Moreover, the GI50 with T47D is 34.4 µM (inactive); with SK-MEL-28 it was 28.3 µM (inactive); in the test on IGROV-1 it was 11.3 µM (inactive); in the test on OVCAR-3, 26.6 µM (inactive); with MOLT-4 it was 11.3 µM (inactive); with KM12, 23.6 µM (inactive). The GI50 is 13.8 µM (inactive) with U-251; 16.4 µM (inactive) in the test on CAKI-1; 21 µM (inactive) in the test with COLO 205; 17.3 µM (inactive) with NCI-H226; 27.1 µM (inactive) in the test with MDA-MB-435; 19.2 µM (inactive) in the test on UACC-62. Further, the figures for the GI50 in the test with ACHN and in the test with HCC 2998 were 17.5 µM (inactive) and 16.4 µM (inactive), respectively.
With `CSc1nnc(SCc2nn3c(=O)cc(C)nc3s2)s1`, the GI50 in the test with NCI-H23 is > 100 µM (inactive); with HCT-15, more than 100 µM; in the test on SK-OV-3 it was > 100 µM (inactive); in the test with UACC-257, > 100 µM (inactive); in the test on HT-29, > 100 µM (inactive); with DU-145 it was > 100 µM (inactive). Besides, the GI50 in the test with T47D, in the test with SK-MEL-28, in the test on IGROV-1, with OVCAR-3, with MOLT-4 and in the test on KM12 was > 100 µM (inactive) in each case. For the same molecule, the GI50 in the test with U-251, in the test on CAKI-1, in the test with COLO 205, in the test with NCI-H226, in the test with MDA-MB-435 and in the test on UACC-62 was > 100 µM (inactive) each time. The GI50 in the test with ACHN and with HCC 2998 was > 100 µM (inactive) each time.

As usually defined, the GI50 is the concentration at which growth is held to half of that of the control.
